The text below walks through data of US20040014764A1, “N-myristoyltransferase inhibitor compositions and methods of use” (priority 2002, published 2004).

Experiment [1] deals with T1, recombinant human NMT (Homo sapiens, UniProt P30419).
T1 sequence (P30419 1-496): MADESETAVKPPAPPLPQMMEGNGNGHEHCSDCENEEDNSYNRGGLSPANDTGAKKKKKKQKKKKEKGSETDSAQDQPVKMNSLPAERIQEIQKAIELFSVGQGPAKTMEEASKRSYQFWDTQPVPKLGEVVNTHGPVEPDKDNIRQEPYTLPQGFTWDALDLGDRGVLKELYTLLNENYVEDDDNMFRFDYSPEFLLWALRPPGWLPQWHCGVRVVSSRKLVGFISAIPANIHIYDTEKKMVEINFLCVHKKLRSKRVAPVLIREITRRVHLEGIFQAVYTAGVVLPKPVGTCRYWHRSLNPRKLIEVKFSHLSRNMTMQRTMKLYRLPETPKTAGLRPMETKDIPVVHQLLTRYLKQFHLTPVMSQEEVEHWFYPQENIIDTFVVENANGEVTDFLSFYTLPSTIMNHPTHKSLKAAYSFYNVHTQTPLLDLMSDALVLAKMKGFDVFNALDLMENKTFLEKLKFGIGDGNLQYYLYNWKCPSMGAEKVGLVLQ
The experiment in a line: NMT screening assay with purified recombinant GST-NMT-1, [3H]-myristoyl-CoA and biotinylated peptide.
Description: Development of the NMT screening assay. […] The cDNA encoding enzymatically active human NMT-1 was subcloned into the pGEX bacterial expression evector, producing an NMT-glutathione-S-transferase4 (GST) fusion protein. This protein was expressed in E. coli using methods well known to those trained in the art, purified using a glutathione resin, and stored at −80° C. until use. Enzyme activity was measured using the recombinant NMT, a peptide of the sequence [sequence]-biotin, wherein amino acids are designated by their recognized single letter code and the terminal lysine residue is conjugated with biotin, [^3H]-myristoyl-CoA, and a test compound or the solvent alone (DMSO). Reaction mixtures are incubated for a specific period of time in 96-well plates coated with streptavidin, which may be purchased from commercial sources including Sigma Chemical Company. […] The streptavidin-biotin interaction can then be disrupted with the addition of 0.1 M glycine, pH 2.8, and the solution containing [^3H]myristoyl-peptide can be transferred to scintillation vials. Alternately, determination of the amount of [^3H]myristoyl-peptide in the samples can be determined using scintillation proximity technology according to methods well known to those who practice the art.
Each compound was tested at a final concentration of 5 μg/ml, which corresponds to concentrations of 10-20 μM. Samples that inhibited NMT activity by at least 60% were then deconvoluted, where each of the 8 compounds was analyzed individually.

Experiment [2] concerns panel of human tumor cell lines. Description: Proliferation of a panel of human tumor cell lines (summary). It is filed as cell-based. Conditions: range over the 8 cell lines of TABLE 3, read-out: IC50s across the tumor cell line panel. As for the experimental part:
(§1) Antiproliferative effects of compound 537.
(§2) Additionally, the effects of compound 537 on the proliferation of a panel of human tumor cell lines were determined. […] Of interest, colon-derived HT29 cells were most sensitive to compound 537, and previous work has indicated a close association of activation of Src (which requires myristoylation for activity) and colon cancer (Raju et al., Exp. Cell Res. 235: 145 (1997)).

The subject of another experiment is endogenous NMT. The experiment in a line: N-myr-GFP localization in transfected CV-1 cells (fluorescence microscopy). It is filed as cell-based, monkey. On the procedure: Cellular effects of COPP compounds. […] To determine their efficacy in intact cells, a novel assay was developed in which the N-terminus of enhanced green fluorescent protein (GFP) was modified to allow its myristoylation (N-myr-GFP) by endogenous NMT. To begin, the myristoylation sequence […] was added to the N-terminus of green fluorescent protein (N-myr-GFP) using techniques familiar to those practiced in the art. Since GFP is intrinsically fluorescent, the sites of its intracellular distribution can be visualized using fluorescence microscopy. When a plasmid containing the N-myr-GFP sequence is transfected into CV-1 cells, the GFP encoded by this construct is myristoylated by endogenous NMT causing it to localize to the plasma membrane, as indicated by the bright fluorescence at the cell periphery (FIG. 2). […] This method provides evidence that the inhibitors detected in the screen with recombinant NMT can also block endogenous NMT activity in whole cells.

The target in another experiment is T2, GST-hNMT-1 (Homo sapiens, UniProt P30419).
T2 construct: made in house; host or cells: E. coli
T2 sequence (P30419 1-496): T1 sequence (P30419 1-496)
Description: Peptide and myristoyl-CoA substrate competition experiments (Michaelis-Menten). It is filed as biochemical. On the procedure: Development of the NMT screening assay.
Mechanism of inhibition of NMT by COPP compounds. The mechanism of inhibition by compound 537 was examined using peptide and myristoyl-CoA substrate competition experiments with GST-hNMT-l. In the absence of inhibitor, the KM for myristoyl-CoA compares very well with the literature value of 2.6 μM (Rocque et al., J Biol. Chem. 268: 9964 (1993)). […] However, it is well established that the affinity for the peptide is highly sequence-sensitive, so that KMS >100 μM are not unusual. For studies of the ability of compound 537 to interact with the peptide-binding site of NMT, the peptide concentration was varied from 0 to 500 μM, while the myristoyl-CoA concentration was kept constant in the assays. The presence of compound 537 at its IC50 concentration […] the KM for the peptide relative to the solvent control. […] To determine the effects of compound 537 on the myristoyl-CoA binding site, the concentration of myristoyl-CoA was varied from 0 to 100 μM, while the peptide concentration was held constant in the assays. […] Overall, these kinetic analyses indicate that compound 537, and most likely the rest of the COPP family, inhibit NMT activity by competing with the substrate peptide for binding to the enzyme.

For experiment [3], the system named is T24 human bladder carcinoma cells. The experiment in a line: Cytotoxicity assay, sulforhodamine B binding. As to conditions: T-24, 48 h, read-out: Cytotoxicity IC50.
Description: To determine the abilities of NMT inhibitors to affect the growth of hyperproliferative cells, cytotoxicity assays were performed using the T24 human bladder carcinoma cell line. […] In these assays, T24 cells growing in tissue culture in the presence of 10% fetal bovine serum are treated with varying concentrations of a test compound for 48 hours. At the end of the treatment period, the number of surviving tumor cells is quantified using any of a variety of methods well known in the field. In these, experiments, the number of surviving cells was determined using the sulforhodamine B binding assay.
The next experiment concerns DU145. The experiment in a line: Antiproliferative activity toward human tumor cell lines. It is filed as cell-based. Conditions: DU-145, DU145, Prostate, mean ± SEM of 4 experiments. On the procedure: as §1, §2
A further experiment relates to SKOV3. The experiment is described as above. As to conditions: SK-OV-3, SKOV3, Ovary, mean ± SEM of 4 experiments. It is filed as cell-based. As for the experimental part:
as §1, §2

In another experiment the test system is HepG2. The description is as above. It is filed as cell-based. Conditions: HepG2, Liver, mean ± SEM of 4 experiments. As for the experimental part: as §1, §2
The next experiment relates to HT29. The description is as above. It is filed as cell-based. Conditions: HT-29, HT29, Colon, mean ± SEM of 4 experiments. On the procedure:
as §1, §2

A further experiment concerns A-498. Described as above. It is filed as cell-based. Conditions: A498, A-498, Kidney, mean ± SEM of 4 experiments. As for the experimental part:
as §1, §2

For the next experiment, the system named is Panc-1. Described as above. As to conditions: Panc-1, Pancreas, mean ± SEM of 4 experiments. It is filed as cell-based. As for the experimental part: as §1, §2
The subject of a further experiment is MCF-7. The experiment is described as above. It is filed as cell-based. Conditions: MCF7, MCF-7, Breast, mean ± SEM of 4 experiments. As for the experimental part: as §1, §2
A further experiment concerns MDA-MB-231. The experiment is described as above. Conditions: MDA-MB-231, Breast, mean ± SEM of 4 experiments. It is filed as cell-based. On the procedure:
as §1, §2

In experiment [4] the target is T1, recombinant human NMT. On the set-up: made in house; host or cells: E. coli. As to conditions: published value (Boutin et al. 1991); read-out: published IC50 concentration for NMT; cited from earlier work.

Where two headings read alike, the source gives them in different places. Where only a bound is given, the exact number is not on record here.

On to `CCn1c2ccccc2c2cc(CN3CCN4CCCC4C3C3CCCCC3)ccc21` (stereo not drawn) [Compound 537], for which the IC50 is 6 µM on recombinant human NMT [1]; 3.7 to 14.8 µM in [2]; 1.8 µM in experiment [3]; 14.8 ± 2.9 µM with DU145; 13.2 ± 3.6 µM with SKOV3; 4.4 ± 1.2 µM in the experiment with HepG2. The IC50 was found to be 3.7 ± 0.6 µM in the experiment with HT29; 5.8 ± 1.4 µM with A-498; 12.6 ± 1.3 µM with Panc-1; 8 ± 0.9 µM in the experiment on MCF-7; 11.9 ± 1.3 µM in the experiment with MDA-MB-231. Also, the “intracellular distribution of N-myr-GFP” value in the experiment on endogenous NMT (micromolar concentrations) is listed as “displacement of N-myr-GFP to the cytosol”. Also, the “Peptide Vmax” value on GST-hNMT-1 (in presence of compound at its IC50 concentration, peptide varied 0 to 500 μM, myristoyl-CoA constant) is 0.076 ± 0.006 pmol/min. Also, the “Myristoyl-CoA Vmax” value at GST-hNMT-1 (in presence of compound, myristoyl-CoA varied 0 to 100 μM, peptide constant) came to 0.034 ± 0.001 pmol/min. In addition, the “mechanism of inhibition with respect to the lipid substrate” value on GST-hNMT-1 (myristoyl-CoA competition) is “noncompetitive inhibitor”. Also, the “mechanism of inhibition with respect to the peptide substrate” value on GST-hNMT-1 (peptide competition) was “competitive inhibitor”.

Turning to `CCCCCCCCCCCCCC(=O)N[C@@H](Cc1ccccc1)C(=O)O` [myristoylphenylalanine, reference compound], on recombinant human NMT [1] (read-out: inhibition of recombinant human NMT), the inhibition at 100 µM is around 50%. Also, the IC50 on recombinant human NMT [4] is 100 µM.

With `c1cc2ccc3ccc(CN4CCN5CCCC5C4C4CCCCC4)c4ccc(c1)c2c34` (stereo not drawn) [Compound 629], the IC50 at recombinant human NMT [1] worked out at 70 ± 8 µM; in experiment [3], 3 µM.

On to `c1ccc2cc(N3CCN4CCCC4C3C3CCCCC3)ccc2c1` (stereo not drawn) [Compound 542], for which the IC50 on recombinant human NMT [1] is 42 ± 5 µM; in experiment [3], 1.3 µM.

With `C1CCC(C2C3CCCN3CCN2C2CCCCC2)CC1` (stereo not drawn) [Compound 624], the IC50 was determined as 113 ± 7 µM at recombinant human NMT [1] and 1.6 µM in experiment [3].

As to `COc1ccc(CN2CCN3CCCC3C2C2CCCCC2)cc1` (stereo not drawn) [Compound 486], the IC50 on recombinant human NMT [1] was determined as 419 ± 30 µM; in [3], 8.1 µM.

For the compound `O=[N+]([O-])c1ccc(-c2ccc(CN3CCN4CCCC4C3C3CCCCC3)o2)cc1` (stereo not drawn) [Compound 617], the values for the IC50 (on recombinant human NMT [1]; in experiment [3]) were 36 ± 4 µM and 4.6 µM, respectively.

For `CC1C2CCCN2CCN1Cc1c2ccccc2c(Cl)c2ccccc12` (stereo not drawn) [Compound 766], the values for the IC50 (on recombinant human NMT [1]; in experiment [3]) were 47 ± 7 µM and 4.2 µM, respectively.

For the compound `Cc1ccc2occ(CN3CCN4CCCC4C3C3CCCCC3)c(=O)c2c1` (stereo not drawn) [Compound 591], the IC50 at recombinant human NMT [1] is above 8000 µM; in [3], 9.7 µM.

Consider `O=[N+]([O-])c1cccc(-c2ccc(CN3CCN4CCCC4C3C3CCCCC3)o2)c1` (stereo not drawn) [Compound 616], for which the IC50 turned out to be 41 ± 1 µM at recombinant human NMT [1] and 2.1 µM in experiment [3].

In the case of `COc1ccc2ccccc2c1CN1CCN2CCCC2C1C1CCCCC1` (stereo not drawn) [Compound 622], the figures for the IC50 (on recombinant human NMT [1]; in [3]) were 28 ± 8 µM and 1.5 µM, respectively.

As to `CC1C2CCCN2CCN1Cc1cccc(Oc2ccc(Cl)cc2)c1` (stereo not drawn) [Compound 726, 2-[3-(4-chloro-phenoxy)-benzyl]-1-methyl-octahydro-pyrrolo[1,2-a]pyrazine], the IC50 at recombinant human NMT [1] turned out to be 40 ± 6 µM; in experiment [3], 1.5 µM.

Turning to `COc1ccc(CN2CCN3CCCC3C2C2CCCCC2)c2ccccc12` (stereo not drawn) [Compound 621], the IC50 on recombinant human NMT [1] came to 35 ± 5 µM; in [3] it was 0.7 µM.

`COc1ccccc1/C=C/CN1CCN2CCCC2C1C1CCCCC1` (stereo not drawn) [Compound 640]: the figures for the IC50 (on recombinant human NMT [1]; in experiment [3]) were 1600 ± 200 µM and 2.8 µM, respectively.

For the compound `CCCCCCCCCCCCC(O)C(=O)O` (stereo not drawn) [2-hydroxymyristic acid, reference compound], in the experiment on endogenous NMT (millimolar concentrations), the “intracellular distribution of N-myr-GFP” value is given as “redistribution of GFP to the cytosol”.

Consider `CC1=C(CCN2CCN3CCCC3C2C2CCCCC2)C(C)(C)CCC1` (stereo not drawn) [Compound 638], for which the IC50 was 43 ± 4 µM on recombinant human NMT [1] and 1.4 µM in experiment [3].

Consider `Brc1csc(CN2CCN3CCCC3C2C2CCCCC2)c1` (stereo not drawn) [Compound 555], for which the IC50 at recombinant human NMT [1] was above 8000 µM; in experiment [3], 1.2 µM.

For `O=[N+]([O-])c1ccccc1-c1ccc(CN2CCN3CCCC3C2C2CCCCC2)o1` (stereo not drawn) [Compound 615], the IC50 on recombinant human NMT [1] amounted to 45 ± 2 µM; in experiment [3] it was 1.4 µM.

Regarding `c1cncc(N2CCN3CCCC3C2C2CCCCC2)c1` (stereo not drawn) [Compound 522], the IC50 at recombinant human NMT [1] was 590 ± 127 µM; in experiment [3], 400 µM.

One may read the inhibition as the relative decrease from the control value, in per cent.
